The values that follow come from patent US20050065436A1, “Rapid and non-invasive optical detection of internal bleeding” (priority 2003, published 2005).

The data set can be described thus: NIR absorption and fluorescence spectra of indocyanine green. It is filed as physicochemical. An excerpt:
Many NIR fluorescence compounds are potential candidates for the present application. One of examples, indocyanine green (ICG), because of its low toxicity, has been used in many clinical applications. Indocyanine green, molecular weight 775, is a tricarbocyanine type of green dye. FIG. 2 and FIG. 3 show the NIR absorption, 650-850 nm, and NIR fluorescence spectra, 650-900 nm, of ICG, respectively. ICG has little absorption in the visible light. However, it is easily excited by an NIR light source with high quantum efficiency. Diode laser light sources with a wavelength between […] is suitable for ICG excitation. The fluorescent peak has a large red shifted relatively to the excitation wavelength. The fluorescence peak at 810 nm is within the NIR window for tissue optics. Due to ICG has a very large fluorescent quantum yield and a distinct peak at 810 nm, a sensitivity of 0.5 μg/ml can be achieved easily. FIG. 3(a), (b), and (c) show the fluorescence spectra of ICG in blood samples with various concentration between 0.5-500 μg/ml

Take `CC1(C)C(/C=C/C=C/C=C/C=C2\N(CCCCS(=O)(=O)O)c3ccc4ccccc4c3C2(C)C)=[N+](CCCCS(=O)(=O)[O-])c2ccc3ccccc3c21` [ICG, Indocyanine green]: the NIR fluorescence spectra (FIG. 3) was 650-900 nm. The compound further displayed a fluorescence peak (FIG. 3, concentrations 0.5-500 μg/ml) of 810 nm. The NIR absorption (absorption spectrum, FIG. 2) is 650-850 nm.
